Read-outs that look alike come from different tables or passages of the source.

For series [1], the system named is MCF7 cells. Briefly: Proliferation assay (Cell Titer-Glo), MCF7. The settings on record: for proliferation: MCF7, single agent CDK4/6 inhibitor over a dose range. It counts as cell-based, human. The protocol: (§1) Cells were seeded in duplicate or triplicate at 1500 to 5000 cells per well in 96 well plates, Opaque-walled 96-well plates with clear bottom: 96-well, Black/Clear, Flat bottom with lid, FALCON, 353219 in reduced serum conditions at either 3% v/v FBS or 1% v/v FBS. The day after plating recombinant HRGβ1 was added to yield a final concentration of 10 nM. Control wells received media without HRGβ1. Plates were then incubated for the indicated time period of 4 to 6 days at 37° C. in a humid atmosphere with 95% air, 5% CO2.
(§2) The day after plating recombinant HRGβ1 was added to yield a final concentration of 10 nM. Control wells received media without HRGβ1. […] Where indicated CDK inhibitors were added at 10 μM and dilutions were performed to generate a dose-response curve with 2 controls wells per row. Plates were then incubated for the indicated time period of 4 to 6 days at 37° C. in a humid atmosphere with 95% air, 5% CO2. Growth inhibition was calculated as a function of the relative inhibition or proliferation of cells treated with either growth factor or antagonists to cells treated with diluent only, over the same time period.
(§3) The day after plating recombinant HRGβ1 was added to yield a final concentration of 10 nM. Control wells received media without HRGβ1. […] Where indicated CDK inhibitors were added at 10 μM and dilutions were performed to generate a dose-response curve with 2 controls wells per row. Plates were then incubated for the indicated time period of 4 to 6 days at 37° C. in a humid atmosphere with 95% air, 5% CO2.
(§4) To measure proliferation, Cell Titer-Glo (CTG) assays were performed as per manufacturer's instructions. Specifically, reagent-1 and reagent-2 were equilibrated to room temperature at which point reagent-1 was added to reagent-2 and mixed by vortex. Test plates containing cells were equilibrated to room temperature for 30 minutes at which point an equal volume of CTG reagent was added to each well of the test plate, typically 100 μl to give a final volume of 200 μl per well. Each plate was then sealed with a foil plate sealer and mixed on an orbital shaker for 10 minutes to lyse cells and release cellular ATP. Following mixing plates were incubated at room temperature for 15 minutes to stabilize the luminescent signal. Data was collected by measuring relative luminescence on a Synergy H1 plate reader using the luminescence program. Growth was calculated and expressed as a relative value to the unstimulated control wells on each individual plate. Growth inhibition was calculated as a function of the relative inhibition of cells treated with antagonists to the growth of cells treated with diluent only, over the same time period. Data was then plotted using GraphPad Prism software.

The subject of a further series is T47D cells. Briefly: Proliferation assay (Cell Titer-Glo), T47D. It counts as cell-based, human. The protocol:
as §1, §2, §3, §4
Background: In ATP-based viability assays light output follows the ATP content of the culture.

In series [2] the test system is MCF7 cells. The series can be described thus: Cell cycle / S-phase by EdU incorporation and flow cytometry in MCF7 cells. The settings on record: MCF7, single agents in the absence of HRG. It counts as cell-based, human. The protocol: FIG. 13 is a representative FACS plot of the cell cycle distribution. The gate settings and percentage for cells in G0/G1, S and G2/M phases are indicated. DNA synthesis (S-phase) was determined by quantifying cells positive for both EdU incorporation and DNA content.
In general terms: A flow cytometer gives signals particle by particle.

The next series deals with RB. The series can be described thus: RB phosphorylation (S807/811, S780) by Western blotting in MCF7 cells. It counts as cell-based, human. The settings on record: MCF7, 20-24 hours; HRG 10 nM, fulvestrant 50 nM, palbociclib, abemaciclib 40 nM. The method, then:
MCF7 cells were cultured as described above. […] Cellular lysates were prepared by lysis in MPER lysis buffer with the addition of protease and phosphatase inhibitors for 30 mins on ice. Cellular debris were removed by centrifugation at 10,000 rpm. Proteins were analyzed by Western blotting according to standard protocols. Protein loading was estimated by blotting with a β-actin antibody (β-Actin (13E5) Rabbit mAb #4970 Cell Signal) and RB activation was measured by detection of phosphorylation of RB (pRB) at pRb (S807/811): Cat #8516 pRb (S780): Cat #8180. Control antibodies as follows total AKT: Cat #9272 pAKT: Cat #4060.

In a further series the test system is CDK2. The series can be described thus: CDK2 activation (phospho-Thr160) by Western blotting in MCF7 cells. In kind it is cell-based, human. The settings on record: MCF7, agent alone, 20-24 hours; HRG 10 nM, fulvestrant, palbociclib, abemaciclib 100 nM. The method, then: Cellular lysates were prepared by lysis in MPER lysis buffer with the addition of protease and phosphatase inhibitors for 30 minutes on ice. Cellular debris was removed by centrifugation at 10,000 rpm. Proteins were analyzed by Western blotting according to standard protocols.
(A western blot detects proteins with antibodies after separation by electrophoresis.)

For series [3] the following is noted: cited from earlier work.
The test system of another series is MCF-7Ca xenograft tumors. Briefly: MCF-7Ca xenograft model of post-menopausal ER+ breast cancer. In kind it is in vivo, mice. The protocol:
A model of post-menopausal ER+ breast cancer was used to determine the effect of blocking HRG-mediated ERB3 signaling and/or estrogen-mediated ER activation on tumor growth (FIG. 16). […] Changes in mean tumor volume (±SEM) were determined weekly by caliper measurement.

Take `C[C@]12CC[C@@H]3c4ccc(O)cc4C[C@@H](CCCCCCCCC[S+]([O-])CCCC(F)(F)C(F)(F)F)[C@H]3[C@@H]1CC[C@@H]2O` (stereo partly drawn) [fulvestrant, 7-alpha-[9-(4,4,5,5,5-pentafluoropentylsulphinyl)nonyl]estra-1,3,5-(10)-triene-3,17beta-diol, reference compound]: the “degree of inhibition of proliferation” value in the series with MCF7 cells [1] (MCF7, CDK4/6 inhibitor plus fulvestrant (50 nM)) is “greater than the activity of the CDK4/6 inhibitor alone”. Further, the “fulvestrant activity on proliferation” value was “significantly decreased” in the series on MCF7 cells [1] (MCF7, HRG present in addition to estradiol) and “significantly decreased” in the series on T47D cells (HRG present in addition to estradiol). In addition, the “inhibition of estradiol induced proliferation” value is “effective at inhibiting estradiol induced proliferation” in the series with MCF7 cells [1] (MCF7, fulvestrant 100 nM, 6 days) and “effective at inhibiting estradiol induced proliferation” in the series on T47D cells (fulvestrant 100 nM, 6 days). Besides, the “S-phase cell cycle progression” value in the series with MCF7 cells [2] is “efficacious at inhibiting S-phase cell cycle progression”. Also, in the series with RB, the “RB phosphorylation / activation” value is reported as “inhibits RB activation”. In the series on CDK2, the CDK2 activation result is listed as “inhibited CDK2 activation”.
As to `CC(C)(C#N)c1cc(Cn2cncn2)cc(C(C)(C)C#N)c1` [anastrozole, a,a,a′,a′-Tetramethyl-5-(1H-1,2,4-triazol-1-ylmethyl)-1,3-benzenediacetonitrile], the solubility entry in series [3] (in acetone) is “freely soluble”; in series [3] (in acetonitrile), “very soluble”; in series [3] (in ethanol), “freely soluble”; in series [3] (in methanol) it was “freely soluble”; in series [3] (in tetrahydrofuran), “freely soluble”.
Consider `CCN1CCN(Cc2ccc(Nc3ncc(F)c(-c4cc(F)c5nc(C)n(C(C)C)c5c4)n3)nc2)CC1` [abemaciclib, 2-pyrimidinamine, N-(5-((4-ethyl-1-piperazinyl)methyl)-2-pyridinyl)-5-fluoro-4-(4-fluoro-2-methyl-1-(1-methylethyl)-1H-benzimidazol-6-yl), reference compound], for which the proliferation result with MCF7 cells [1] (6 days) was “inhibited proliferation in a dose dependent manner”. The “RB phosphorylation / activation” value with RB is “decrease RB activation”.
Regarding `N#Cc1ccc(C(c2ccc(C#N)cc2)n2cncn2)cc1` [letrozole, 4,4′-(1H-1,2,4-Triazol-1-ylmethylene)dibenzonitrile], in the series with MCF-7Ca xenograft tumors (letrozole 10 μg/mouse/day x 5 days/week SQ), the tumor response result is listed as “initially responded”. Further, in the series on MCF-7Ca xenograft tumors (letrozole monotherapy, time of treatment), the “start of development of resistance” value is on record as 7-8 weeks. Further, the figures for the solubility result in series [3] (in dichloromethane), in series [3] (in ethanol) and in series [3] (in water) were “freely soluble”, “slightly soluble” and “practically insoluble”, respectively.
As to `CN(C)C(=O)c1cc2cnc(Nc3ccc(N4CCNCC4)cn3)nc2n1C1CCCC1` [ribociclib, 7-cyclopentyl-N,N-dimethyl-2-((5-(piperazin-1-yl)pyridin-2-yl)amino)-7H-pyrrolo[2,3-d]pyrimidine-6-carboxamide, reference compound], the proliferation entry in the series with MCF7 cells [1] (6 days) is “inhibited proliferation in a dose dependent manner”.

(Values after patent US20190091227A1, “METHODS FOR TREATING ER+, HER2-, HRG+ BREAST CANCER USING COMBINATION THERAPIES COMPRISING AN ANTI-ERBB3 ANTIBODY” (Merrimack Pharmaceuticals, Inc., priority 2016, published 2019).)
